Experimental data from patent US20230149409A1, “TREATMENT OF HUMAN PAPILLOMAVIRUS-ASSOCIATED CANCERS BY PD-L1 INHIBITORS” (priority 2021, published 2023).

How the values were obtained:
[1] = target: T1, PD-L1 on CD14+ cells in human whole blood (Homo sapiens, UniProt Q9NZQ7); experiment: PD-L1 whole blood internalization assay; format: cell-based; details: 1 ng/mL interferon γ, CD14+ gated, 24 hour
T1 construct: Cells were gated on CD14+ (BD Biosciences) and PD-L1 expression determined by mean fluorescence intensity; host or cells: CD14+ cells in normal human whole blood, stimulated with human interferon gamma
Description: PD-L1 Whole Blood Internalization Assay
To determine PD-L1 internalization in human whole blood, normal human blood (Biological Specialty Corp, Colmar. PA) was incubated in the presence or absence of a concentration range of test compounds and 1 ng/mL human interferon γ (R&D Systems Inc. Minn. MN) in a 96 well “2 mL Assay Block” (Corning, Corning NY) for 18-20 hours at 37 °C. Blood was then stained with PD-L1 (MIH1, eBioscience; or BD Biosciences San Jose, CA), CD14 (Life Technologies, Carlsbad, CA) for 30 minutes in the dark at room temperature. Whole Blood/red cells were lysed/fixed (lysis buffer BD Biosciences) for 5 minutes at 37 °C in the dark and then centrifuged at 1600 RPM for 5 minutes. Cells were resuspended in Stain Buffer (BD Bioscience, San Jose, CA) and transferred into 96 well round bottom plates (Coming). Cells were gated on CD14+ (BD Biosciences) and PD-L1 expression determined by mean fluorescence intensity (MFI) (BD LSRFortessa® X-20). IC50 determination was performed by fitting the curve of compound percent inhibition versus the log of the compound concentration using the GraphPad Prism 7.0 software.

[2] = system: PD-L1 (PD-L1 aAPC/CHO-K1 cells, Jurkat-PD-1-NFAT effector cells); experiment: Nuclear Factor of Activated T-cells (NFAT) assay; format: cell-based; details: Cricetulus griseus; PD-L1 aAPC/CHO-K1 + Jurkat-PD-1-NFAT cells, 24 hours
Description: Nuclear Factor of Activated T-cells (NFAT) Assay
PD-L1 aAPC/CHO-K1cells (Promega) were maintained in F-12 medium with addition of 10% FBS, 200 µg/mL Hygromycin B, 250 µg/mL Geneticin (G418). […] The culture media of PD-L1 aAPC/CHO-K1 cells were first replaced with assay medium (RPMI1640 medium with 1% FBS). The PD-L1 aAPC/CHO-K1cells were then added in a white 384-well white clear bottom assay plate (CELLCOAT® Tissue Culture Plates, Greiner Bio-One) at 8000 per well in 10 uL assay medium. […] 5 uL compounds in the assay medium were transferred to the cells with 0.4% DMSO in the final assay at 2 µM. After removing the culture media, 10,000 Jurkat-PD-1-NFAT effector cells in 5 µL assay medium was dispensed into each well. The assay plate was incubated at 37° C., 5% CO2 for 24 hours. […] After 8 minutes incubation at room temperature, luminescence was read at with Pherastar microplate reader (BMG Labtech). The fold of induction (FOI) was calculated based on the ratio of luminescence normalized to the DMSO wells within each assay plate. The maximum percentage of induction was reported based on the ratio between the highest FOI of each compound and the maximum FOI of control compound within each assay plate. Wells with DMSO were served as the negative controls and wells containing control compound with the highest FOI were used as positive controls. EC50 determination was performed by fitting the curve of percent control activity versus the log of the compound concentration using the GraphPad Prism 6.0 software.

[3] = system: PD-L1 (U2OS/PD-L1 cells, Jurkat-PD-1-SHP cells); experiment: Src Homology Region 2 Domain-containing Phosphatase (SHP) assay; format: cell-based; details: Homo sapiens; U2OS/PD-L1 + Jurkat-PD-1-SHP cells, 2 hours
Description: Example 1B. Src Homology Region 2 Domain-containing Phosphatase (SHP) Assay
U2OS/PD-L1 cells (DiscoveRx Corporation) were maintained in McCoy’s 5A medium with addition of 10% FBS, 0.25 µg/mL Puromycin. After removing the culture media, the cell medium was replaced with assay medium (RPMI1640 medium with 1% FBS). The U2OS/PD-L1 cells were then added in 384-well black clear bottom assay plate (CELLCOAT® Tissue Culture Plates, Greiner Bio-One) at 5000 cells per well in 20 uL assay medium. Test compounds were prepared by serial dilution in DMSO and 125 nL compound were first transferred to the 384 REMP plate well (Thermofisher) by ECHO liquid handler (Labcyte) followed with addition of 27.5 uL assay medium. 5 µL/well compounds in the assay medium were transferred to the cell plate with 0.05% DMSO in the final assay at 0.25 µM. Jurkat-PD-1-SHP cells (DiscoveRx Corporation) were cultured in RPMI1640 medium supplemented with 10% FBS, 250 µg/mL Hygromycin B, 500 µg/mL G418. After the replacement of culture media with assay medium, 5,000 Jurkat-PD-1-SHP cells in 20 µL were dispensed into each well. The assay plate was incubated at 37° C., 5% CO2 for 2 hours before 2.5 uL PathHunter reagent 1 (DiscoveRx Corporation) were added to each well. The assay plate was shaken for 1 min at 350 rpm in the dark followed with addition of 10 uL PathHunter reagent 2 (DiscoveRx Corporation). Chemiluminescent signal was recorded with TopCount reader (Perkin Elmer) after incubation at room temperature for 1 hour. Wells with DMSO were served as the positive controls and wells containing no cells were used as negative controls. IC50 determination was performed by fitting the curve of percentage of control activity versus the log of the compound concentration using the GraphPad Prism 6.0 software.

[4] = target: T2, PD-⅟PD-L1 (recombinant human PD-L1 protein and human PD-1 protein) (Homo sapiens, UniProt Q9NZQ7); experiment: Homogeneous Time-Resolved Fluorescence (HTRF) PD-1/PD-L1 binding assay; details: 3 nM PD1, 10 nM PD-L1, 25° C., PBS pH 7.4
T2 construct: Recombinant human PD-L1 protein (19-238) with a His-tag at the C-terminus; purchased AcroBiosystems PD1-H5229 (PD-L1); PD1-H5257 (PD-1)
Description: Homogeneous Time-Resolved Fluorescence (HTRF) PD-⅟PD-L1 Binding Assay
The assays were conducted in a standard black 384-well polystyrene plate with a final volume of 20 uL. Inhibitors were first serially diluted in DMSO and then added to the plate wells before the addition of other reaction components. The final concentration of DMSO in the assay was 1%. The assays were carried out at 25° C. in the PBS buffer (pH 7.4) with 0.05% Tween-20 and 0.1% BSA. […] PD-L1 and PD-1 proteins were diluted in the assay buffer and 10 uL was added to the plate well. Plates were centrifuged and proteins were preincubated with inhibitors for 40 minutes. The incubation was followed by the addition of 10 uL of HTRF detection buffer supplemented with Europium cryptate-labeled anti-human IgG (PerkinElmer-AD0212) specific for Fc and anti-His antibody conjugated to SureLight®-Allophycocyanin (APC, PerkinElmer-AD0059H). […] Final concentrations in the assay were - 3 nM PD1, 10 nM PD-L1, 1 nM europium anti-human IgG and 20 nM anti-His-Allophycocyanin. IC50 determination was performed by fitting the curve of percent control activity versus the log of the inhibitor concentration using the GraphPad Prism 5.0 software.

T2 sequence (Q9NZQ7 19-238): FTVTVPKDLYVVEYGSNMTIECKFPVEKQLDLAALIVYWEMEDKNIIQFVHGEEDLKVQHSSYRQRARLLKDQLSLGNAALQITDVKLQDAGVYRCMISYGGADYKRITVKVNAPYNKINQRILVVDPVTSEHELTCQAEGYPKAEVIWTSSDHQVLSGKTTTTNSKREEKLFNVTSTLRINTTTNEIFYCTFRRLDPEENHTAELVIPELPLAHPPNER
T1 sequence (Q9NZQ7 19-290): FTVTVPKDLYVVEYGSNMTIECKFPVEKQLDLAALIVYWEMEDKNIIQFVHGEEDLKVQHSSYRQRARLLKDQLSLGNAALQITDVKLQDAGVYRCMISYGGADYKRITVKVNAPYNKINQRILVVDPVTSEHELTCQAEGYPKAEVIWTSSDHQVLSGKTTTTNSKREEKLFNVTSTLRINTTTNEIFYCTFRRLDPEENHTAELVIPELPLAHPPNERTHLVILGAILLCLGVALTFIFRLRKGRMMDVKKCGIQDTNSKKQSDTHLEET

Row | IC50 [1] [nM] | IC50 [3] [nM] | IC50 [4] [nM] | Structure (SMILES) | EC50 [2] [nM]
1 | < 100 | < 10 | < 10 | Cc1c(NC(=O)c2nc3c(n2C)CCN(C[C@H]2CC[C@@H](C(=O)O)CC2)C3)cccc1-c1cccc(NC(=O)c2nc3c(n2C)CCN(C)C3)c1Cl [Compound 17, cis-4-((2-((2′-chloro-3′-(1,5-dimethyl-4,5,6,7-tetrahydro-1H-imidazo[4,5-c]pyfidine-2-caiboxamido)-2-methyl-[1,1′-biphenyl]-3-yl)caibamoyl)-1-methyl-1,4,6,7-tetrahydro-5H-imidazo[4,5-c]pyridin-5-yl)methyl)cyclohexane-1-carboxylic acid] | < 100
2 | < 100 | < 10 | < 10 | Cc1c(NC(=O)c2nc3c(n2C)CCN(C)C3)cccc1-c1cccc(NC(=O)c2nc3c(n2C)CCN(C[C@H]2CC[C@@H](C(=O)O)CC2)C3)c1Cl [Compound 18, cis-4-((2-((2-chloro-3′-(1,5-dimethyl-4,5,6,7-tetrahydro-1H-imidazo[4,5-c]pyfidine-2-caiboxamido)-2′-methyl-[1,1′-biphenyl]-3-yl)carbamoyl)-1-methyl-1,4,6,7-tetrahydro-5H-imidazo[4,5-c]pyridin-5-yl)methyl)cyclohexane-1-carboxylic acid] | < 100
3 | < 100 | < 10 | < 10 | CN1CCc2c(nc(C(=O)Nc3cccc(-c4cccc(NC(=O)c5nc6c(n5C)CCN(CC[C@H]5CC[C@H](C(=O)O)CC5)C6)c4C#N)c3Cl)n2C)C1 [Compound 19, trans-4-(2-(2-((2′-chloro-2-cyano-3′-(1,5-dimethyl-4,5,6,7-tetrahydro-1H-imidazo[4,5-c]pyridine-2-carboxamido)-[1,1′-biphenyl]-3yl)carbamoyl)-1-methyl-1,4,6,7-tetrahydro-5H-imidazo[4,5-c]pyridin-5-yl)ethyl)cyclohexane-1-carboxylic acid] | < 100
4 | < 500 | < 10 | < 10 | CCN(C)CC(=O)N1Cc2nc(-c3cccc(-c4cccc(NC(=O)c5nc6c(n5C)CCN(C[C@H]5CC[C@H](C(=O)O)CC5)C6)c4Cl)c3C)sc2C1 [Compound 20, trans-4-((2-(2-chloro-3′-(5-(2-(ethyl(methyl)amino)acetyl)-5,6-dihydro-4H-pyrrolo[3,4-d]thiazol-2-yl)-2′-methylbipheiryl-3-ylcarbamoyl)-1-methyl-6,7-dihydro-1H-imidazo [4,5-c]pyridin-5 (4H)-yl)methyl)cyclohexane-1-carboxylic acid] | < 500
5 | < 100 | < 10 | < 10 | CCN(C)CC(=O)N1Cc2nc(-c3cccc(-c4cccc(NC(=O)c5nc6c(n5C)CCN(C[C@H]5CC[C@@H](C(=O)O)CC5)C6)c4Cl)c3C)sc2C1 [Compound 21, cis-4-((2-(2-chloro-3′-(5-(2-(ethyl(methyl)amino)acetyl)-5,6-dihydro-4H-pyrrolo[3,4-d]thiazol-2-yl)-2′-methylbiphenyl-3-ylcarbamoyl)-1-methyl-6,7-dihydro-1H-imidazo [4,5-c]pyridin-5 (4H)-yl)methyl)cyclohexane-1-carboxylic acid] | < 100
6 | < 500 | < 10 | < 10 | CCN(C)CC(=O)N1Cc2nc(-c3cccc(-c4cccc(NC(=O)c5nc6c(n5C)CCN(CCC5CCC(C(=O)O)CC5)C6)c4Cl)c3C)sc2C1 (stereo not drawn) [Compound 22, 4-(2-(2-(2-chloro-3′-(5-(2-(ethyl(methyl)amino)acetyl)-5,6-dihydro-4H-pyrrolo[3,4-d]thiazol-2-yl)-2′-methylbiphenyl-3-ylcarbamoyl)-1-methyl-6,7-dihydro-1H-imidazo[4,5-c]pyridin-5(4H)-yl)ethyl)cyclohexane-1-carboxylic acid] | < 100
7 | < 100 | < 10 | < 10 | Cc1c(-c2nc3c(s2)CN(C(=O)CN(C)C(C)C)C3)cccc1-c1cccc(NC(=O)c2nc3c(n2C)CCN(CCC2CCC(C(=O)O)CC2)C3)c1Cl (stereo not drawn) [Compound 23, 4-(2-(2-(2-chloro-3′-(5-(2-(isopropyl(methyl)amino)acetyl)-5,6-dihydro-4H-pyrrolo[3,4-d]thiazol-2-yl)-2′-methylbiphenyl-3-ylcarbamoyl)-1-methyl-6,7-dihydro-1H-imidazo[4,5-c]pyridin-5(4H)-yl)ethyl)cyclohexane-1-carboxylic acid] | < 100
8 | < 100 | < 10 | < 10 | C[C@@H](O)CN1CCc2c(nc(C(=O)Nc3cccc(-c4cccc(NC(=O)c5nc6c(n5C)CCN(CCC57CCC(C(=O)O)(CC5)C7)C6)c4Cl)c3Cl)n2C)C1 [Compound 29] | < 10
9 | < 100 | < 10 | < 10 | Cn1c(C(=O)Nc2cccc(-c3cccc(NC(=O)c4nc5c(n4C)CCN(CC46CCC(C(=O)O)(CC4)C6)C5)c3Cl)c2Cl)nc2c1CCN(CCC13CCC(C(=O)O)(CC1)C3)C2 [Compound 31, 4-((2-((3′-(5-(2-(4-carboxybicyclo[2.2.1]heptan-1-yl)ethyl)-1-methyl-4,5,6,7-tetrahydro-1H-imidazo[4,5-c]pyridine-2-carboxamido)-2,2′-dichloro-[1,1′-biphenyl]-3-yl)carbamoyl)-1-methyl-1,4,6,7-tetrahydro-5H-imidazo[4,5-c]pyridin-5-yl)methyl)bicyclo[2.2.1]heptane-1-carboxylic acid] | < 100
